We go through 58 compounds from article PMC11056319, “Targeting PRMT9-mediated arginine methylation suppresses cancer stem cell maintenance and elicits cGAS-mediated anticancer immunity” (Nature Cancer, 2024).

One data set deals with Molm13. Put plainly: cells. More on the design: Molm13 cell viability screen of virtual-screening hits, 4 days of treatment, per cent of control. The following applies: 1 uM, 4 days, 96 h. The procedure: We performed virtual screening. Briefly, we screened compounds for binding affinity to PRMT9; compounds were from the National Cancer Institute (NCI) and ZINC library (Fig. 4a,b). […] We used doses of 1 and 5 µM in a Molm13 cell-based viability assay (Extended Data Fig. 6a). […] Specifically, we assessed their effects on PRMT9 catalysis (Extended Data Fig. 6b). […] Cells were treated for 4 days with 1 or 5 μM compounds. For each compound, the number represents its library ID. Experiments were triplicated; P values were derived from t tests. b, R493 methylation assay. […] Catalytic activity was assessed by anti-R493 antibody. Synthesized R493me peptide as positive control. c, Catalysis screen of top 20 compounds. PRMT9 protein was pretreated with indicated compound (10 μM), then incubated with PABPC1 peptides and SAM. d, e, Catalytic activity of indicated compounds based on R493 methylation assay (d). Inhibition curves were calculated based on intensity of dots and normalized to DMSO (e). […] LD2 is designed based on NSC641396 (g). Docking model of NSC641396 in the catalytic pocket (f). h, IC50 analysis of LD2 in B-NHL lines. Cells were treated for 4 days with LD2. […] Cells were treated with a dose titration of 0.5–40 μM LD2 for 48 hr. The inhibition activity of LD2 to PRMT9 (right red curve) was evaluated by calculating the normalized PABPC1 R493 methylation signal. The inhibition activity of LD2 to PRMT5 (right blue curve) was evaluated by calculating the normalized SmB’B’ methylation signal (supplementary Fig. 2). k, Vina docking of LD2 with PRMT9, PRMT5, CARM1 or PRMT7 was performed, and the average docking scores (kcal/mol, with standard deviation) were shown. l, Molecular dynamics simulation analyses of LD2 with PRMT9 or PRMT5.
Consider `OC(COc1cccc2ccccc12)CN1CCN(c2ccc(Cl)cc2)CC1` (stereo not shown) [NSC91397], for which the “% viability” value is on record as 148.7%.

The same data set, now with this note: 5 uM, 4 days, 96 h.
Consider `OC(COc1cccc2ccccc12)CN1CCN(c2ccc(Cl)cc2)CC1` (stereo not shown) [NSC91397], for which the “% viability” value was determined as 145.8%.

The data set is the same for the next values; noted with them: Homo sapiens, MOLM-13, 96 h, 4 days.
As for `O=C(Oc1ccc(NC(=O)c2cc3c(cc2Br)OCO3)cc1)c1ccccc1` [NSC268487], the viability at 1 µM came out at 83.1% and the viability at 5 µM amounted to 72.1%.

Turning to `c1ccc(-c2nc3ccccc3nc2-c2ccc(Sc3ccc(-c4nc5ccccc5nc4-c4ccccc4)cc3)cc2)cc1` [NSC293778], the viability at 1 µM came to 95.7%.

`Cc1cc(O)c(C(C)C)cc1N=Cc1cc([N+](=O)[O-])ccc1O` [NSC33472]: the viability at 1 µM came out at 120%.

Regarding `O=C(Nc1cccc([N+](=O)[O-])c1)c1ccc2ccccc2c1O` [NSC50648], the viability at 1 µM stood at 81% and the viability at 5 µM is 62.1%.

Take `COc1ccc(C2OC3=C(Nc4cc(C)c(C)cc4N3)C2=O)cc1` (stereo not shown) [NSC372275]: the viability at 1 µM amounted to 95.6%.

Take `NC1=NC(c2ccc(Cl)cc2)N(c2ccc(S(N)(=O)=O)cc2)C(N)=N1` (stereo not shown) [NSC117268]: the viability at 1 µM was 90.3%.

As to `O=C(Nc1ccccc1Cl)Oc1ccc(-c2ccccc2)cc1` [NSC204321], the viability at 5 µM was determined as 90.1%.

In the case of `N#C/C(=C\C=C\c1ccccc1)c1nc(-c2ccc(Cl)cc2)cs1` [NSC310347], the viability at 1 µM worked out at 69.3% and the viability at 5 µM is 74.4%.

On to `COc1ccc2c3c([nH]c2c1)[C@H]1C[C@H]2[C@H](C[C@@H](O)[C@H](OC)[C@H]2CO)CN1CC3` [NSC80137], for which the viability at 1 µM turned out to be 82.2% and the viability at 5 µM was determined as 75.6%.

Take `CCN1Cc2c(/C=C/c3ccccc3)nc3ccc(OC)cc3c2N(c2cccc(Cl)c2)C1` [NSC340852]: the viability at 1 µM amounted to 88.3% and the viability at 5 µM was determined as 53.2%.

`COc1ccc2nc(-c3ccc(Cl)cc3)cc(C(=O)O)c2c1` [NSC39984]: the viability at 1 µM is 76.8% and the viability at 5 µM was determined as 79.5%.

In the case of `c1ccc(-c2nc(-c3nccc4ccccc34)oc2-c2ccccc2)cc1` [NSC25457], the viability at 5 µM came to 110%.

On to `Cc1ccc2c(c1)Sc1c(ccc3ccccc13)N2` [NSC40273], for which the viability at 5 µM was found to be 102%.

For the compound `C[C@]12C[C@H](O)[C@H]3[C@@H](CCC4=CC(=O)CC[C@@]43C)[C@@H]1CC[C@@H]2c1csc(-c2ccccc2)n1` [NSC93354], the viability at 1 µM amounted to 91.9% and the viability at 5 µM was 69.1%.

Regarding `O=C(Nc1ccc2ccccc2c1)c1ccc(Cl)cc1Cl` [NSC158959], the viability at 5 µM was 127%.

On to `Cc1ccc(-c2nc(-c3nccc4ccccc34)oc2-c2ccccc2)cc1` [NSC116702], for which the viability at 1 µM was 87.8% and the viability at 5 µM was determined as 150%.

`Oc1ccccc1N=Cc1c(O)ccc2ccccc12` [NSC111847]: the viability at 5 µM amounted to 85.7%.

As to `O=C(/C=C/C(=O)N1CCc2ccccc2C1)N1CCc2ccccc2C1` [NSC87838], the viability at 1 µM stood at 92.3% and the viability at 5 µM was 92.6%.

Turning to `OC(COc1cccc2ccccc12)CN1CCN(c2ccccc2Cl)CC1` (stereo not shown) [NSC91396], the viability at 1 µM is 147% and the viability at 5 µM stood at 143%.

`C#Cc1cccc(NC(=O)c2ccc(Cl)cc2Cl)c1` [NSC372769]: the viability at 1 µM turned out to be 82.8% and the viability at 5 µM is 93.1%.

In the case of `Clc1ccccc1-c1nc2ccccc2[nH]1` [NSC128751], the viability at 1 µM is 80.4% and the viability at 5 µM is 80%.

With `Cc1cc(N=Nc2c(O)c3ccccc3[nH]c2=O)ccc1N=Nc1ccc(C(=O)N(C)C)cc1` [NSC58052], the viability at 1 µM stood at 96% and the viability at 5 µM stood at 80.5%.

For the compound `O=C(O)CCC(=O)c1ccc2ccc3cccc4ccc1c2c34` [NSC407628], the viability at 1 µM was determined as 94.7% and the viability at 5 µM was 100%.

Turning to `COc1cc2c(cc1OC)C(=O)Cc1ccc3c(c1CN(C)CC2)OCO3` [NSC32984], the viability at 1 µM was 137%.

Consider `O=C1c2cccc(Sc3ccccc3)c2C(=O)c2c(Sc3ccccc3)cccc21` [NSC156516], for which the viability at 1 µM stood at 122% and the viability at 5 µM is 118%.

Turning to `c1ccc(-c2nc(-c3ccccn3)nc(-c3ccccn3)n2)nc1` [NSC112125], the viability at 1 µM turned out to be 85.4% and the viability at 5 µM is 81.8%.

In the case of `CCCc1cc(=O)oc2c3c(c4c(c12)OC(C)(C)C=C4)OC(C)[C@H](C)[C@@H]3O` (stereo partly shown) [NSC661122], the viability at 1 µM was determined as 100% and the viability at 5 µM turned out to be 79.3%.

On to `Cc1cc(N2CCN(C)CC2)n2nc(-c3ccc(Cl)cc3)nc2n1` [NSC252359], for which the viability at 1 µM stood at 64% and the viability at 5 µM is 75.8%.

With `CO[C@@H]1[C@@H](OC(=O)c2ccc(C)[nH]2)[C@@H](O)[C@H](Oc2ccc3c(O)c(NC(=O)c4ccc(O)c(CC=C(C)C)c4)c(=O)oc3c2Cl)OC1(C)C` [NSC227186], the viability at 5 µM is 110%.

On to `CCN(CC)c1ccc(/C=C/c2cc(-c3ccccc3)c3ccccc3n2)cc1` [NSC13487], for which the viability at 1 µM was 93.3% and the viability at 5 µM was found to be 94.8%.

As to `O=C(Nc1ccc(Br)c2ccccc12)c1ccc2ccccc2c1O` [NSC601359], the viability at 5 µM came to 72.7%.

As to `COc1cc2c(=O)n3c4c(cccc4c2cc1OC)CC3` [NSC276736], the viability at 1 µM was found to be 97.9%.

For the compound `CC1=CC(C)(C)Nc2ccc(Cc3ccc4c(c3)C(C)=CC(C)(C)N4)cc21` [NSC217697], the viability at 1 µM is 69.3% and the viability at 5 µM amounted to 74.4%.

As for `O=C(Nc1ccc(C2=NCCCN2)cc1)Nc1ccc(C2=NCCCN2)cc1` [NSC63680], the viability at 5 µM is 75.2%.

For the compound `Oc1c(Cl)cc(Cl)cc1/C=N/c1nc(-c2ccc(Cl)cc2)cs1` [NSC328104], the viability at 1 µM was determined as 87.9%.

As to `c1ccc(Nc2cccc3c(Nc4ccccc4)cccc23)cc1` [NSC24032], the viability at 1 µM came to 120%.

As to `N#Cc1ccc(NC(=O)Nc2ccc(Oc3ccc(NC(=O)Nc4ccc(C#N)cc4)cc3)cc2)cc1` [NSC80734], the viability at 5 µM came out at 67.2%.

Turning to `O=C(Nc1ccccc1-c1ccccc1)C(=O)Nc1ccccc1-c1ccccc1` [NSC338042], the viability at 5 µM is 93.1%.

Turning to `Cc1c(O)ccc2c(O)c(NC(=O)c3ccc4c(c3)CCC(C)(C)O4)c(=O)oc12` [NSC5157], the viability at 1 µM amounted to 94.6%.

Consider `O=C1C(=Nc2cccc(Cl)c2)CC(c2ccc(Cl)cc2)N1c1cccc(Cl)c1` (stereo not shown) [NSC13294], for which the viability at 1 µM worked out at 98.3% and the viability at 5 µM turned out to be 97.9%.

In the case of `CC(=O)Oc1ccc2cc(-c3ccccc3)c(=O)oc2c1` [NSC17055], the viability at 5 µM was 102%.

Regarding `Oc1ccccc1-c1nc2c3ccccc3c3ccccc3c2[nH]1` [NSC332670], the viability at 1 µM was 79.2% and the viability at 5 µM is 84.8%.

With `Cc1nn(-c2ccccc2)nc1C(=O)Nc1ccc2[nH]ncc2c1` [NSC371765], the viability at 5 µM worked out at 86.1%.

As for `O=c1cc(-c2cccnc2)oc2c1ccc1ccccc12` [NSC283845], the viability at 5 µM is 60.4%.

With `Clc1cc2c(c(CSc3nc4ccccc4n4cccc34)c1)OCOC2` [NSC321491], the viability at 5 µM worked out at 85.7%.

With `Cn1ncc2c(Nc3ccccc3Cl)nc(Nc3ccccc3Cl)nc21` [NSC19061], the viability at 1 µM came out at 158%.

As to `C[C@H]1CC[C@@]2(C)[C@@H](CC[C@@H]3[C@@H]2CC[C@]2(C)[C@@H](O)CC[C@@H]32)C1` [NSC21603], the viability at 5 µM is 96.5%.

Take `Brc1ccc(-c2csc(Nc3nc(-c4ccc(Br)cc4)cs3)n2)cc1` [NSC55691]: the viability at 5 µM came to 114%.

As to `O=C(CC1C=Cc2ccccc2N1C(=O)c1ccccc1)c1ccccc1` (stereo not shown) [NSC116709], the viability at 1 µM turned out to be 90.2% and the viability at 5 µM is 72.7%.

As for `Fc1ccc(-c2cc(-c3cccs3)cc(-c3ccccc3)n2)cc1` [NSC246999], the viability at 5 µM amounted to 98.7%.

In the case of `O=C(Nc1ccc(C2=NCCN2)cc1)c1ccc(Cl)c(C(=O)Nc2ccc(C3=NCCN3)cc2)c1` [NSC67436], the viability at 1 µM came out at 95.2% and the viability at 5 µM is 81.3%.

`c1cc2c3c(cccc3c1)NC1(CCC3(CC1)Nc1cccc4cccc(c14)N3)N2` [NSC97920]: the viability at 1 µM is 59.1% and the viability at 5 µM is 8.91%.

Regarding `Oc1ccc2ccccc2c1C=Nc1ccccc1` [NSC111846], the viability at 1 µM was 77% and the viability at 5 µM is 84.6%.

`COc1ccccc1/C=C1\Cc2ccccc2C1=O` [NSC636717]: the viability at 5 µM was found to be 86%.

In the case of `Cc1cc(O)c(C(C)C)cc1NC(=O)Nc1cccc2ccccc12` [NSC32673], the viability at 1 µM was 90.3% and the viability at 5 µM was determined as 45.8%.

`Clc1ccccc1/C=C/c1ccnc2ccccc12` [NSC15784]: the viability at 1 µM came out at 85.7% and the viability at 5 µM was 81.7%.

As to `Cc1cccc2cc3cccc(C)c3nc12` [NSC61888], the viability at 1 µM was found to be 144% and the viability at 5 µM was 134%.

As a reminder, the viability is a read-out of living cells in per cent, often relative to untreated cells.
